# Measured values reported in article PMC10487437 (International Journal of Molecular Sciences, 2023).
# Read-outs that look alike come from different tables or passages of the source. Square brackets hold non-standard residues; d marks the D form. Peptide text beside a SMILES is read from it. * marks the point of attachment. Nle = CCCC[C@H](N)C(=O)O; Cbz = O=C(OCc1ccccc1)*
# Experiments:
# [1] = test system: T1, 20S proteasome from murine brain; test: Specific peptidase activity of 20S proteasome with additives (Table S1); type: biochemical, mouse; details: for Specific peptidase activity using Suc-LLVY-AMC: 20S plus additive: 0.5 µM Bortezomib, 0.1 µM MG132, 0.02% SDS or 11S (1:2, mole:mole), 20S alone 2.37 ± 0.13
# T1 construct: from tissue; host or cells: mouse brain
# Excerpt: Characterization of puriﬁed proteasomes
# teasomes. […] To conﬁrm that
# cathepsin B [48] (Table S1).
# reaction mixture for both 20S and 26S.
# Table S1. Peptidase activity of the samples of 20S and 26S proteasome from murine brain.
# The molar ratio between the proteasome
# [2] = test system: 26S proteasome from murine brain; test: Specific peptidase activity of 26S proteasome with additives (Table S1)
# [3] = molecular target: T2, 20S brain proteasome, chymotrypsin-like activity (Mus musculus, UniProt O09061+O55234); test: Inhibition of 20S brain proteasome hydrolysis of Suc-LLVY-AMC (chymotrypsin-like activity); type: biochemical; details: 20 mM Tris-HCl pH 7.5, 1 mM DTT, 1 mM EDTA; [20S] = 50 nM; [Suc-LLVY-AMC] = 50 µM
# T2 construct: from tissue; host or cells: mouse brain
# Excerpt: (§1) Figure 7 The dependence of 20S proteasome activity on marizomib concentration during hydrolysis of peptide fluorogenic substrates. (a) hydrolysis of model oligoglutamine substrates, Dabcyl-KQ5-PPDE-EDANS (Q5) or Dabcyl-KQ10-PPDE-EDANS (Q10). (b) hydrolysis of standard coumarine-modified peptide substrates. The experimental data are approximated by the function y = A1 + (A2 − A1)/(1 + 10^(LOGx0–x)p), where A1 and A2 are the minimum and maximum values of log10(Ci), respectively, LOGx0 is the logarithm of the EC50 (the concentration giving a response half-way between the upper and lower asymptotes), and p is the Hill coefficient.
# [4] = molecular target: T3, 20S brain proteasome, caspase-like activity (Mus musculus, UniProt P70195+Q60692); test: Inhibition of 20S brain proteasome hydrolysis of Z-LLE-AMC (caspase-like activity); type: biochemical; details: [20S] = 50 nM; for IC50: 20 mM Tris-HCl pH 7.5, 1 mM DTT, 1 mM EDTA, [Z-LLE-AMC] = 50 µM
# T3 construct: from tissue; host or cells: mouse brain
# Excerpt: as §1
# 20S brain proteasome = test system: T4, 20S brain proteasome; test: Inhibition of 20S brain proteasome hydrolysis of oligoglutamine-containing FRET substrates; type: biochemical, mouse; details: [20S] = 50 nM; for IC50: 20 mM Tris-HCl pH 7.5, 1 mM DTT, 1 mM EDTA
# T4 construct: from tissue; host or cells: mouse brain
# Excerpt: as §1
# [5] = molecular target: T5, 20S brain proteasome, trypsin-like activity (Mus musculus, UniProt P70195+Q9R1P1); test: Inhibition of 20S brain proteasome hydrolysis of Ac-RLR-AMC (trypsin-like activity); type: biochemical; details: [20S] = 50 nM; for IC50: 20 mM Tris-HCl pH 7.5, 1 mM DTT, 1 mM EDTA, [Ac-RLR-AMC] = 50 µM
# T5 construct: from tissue; host or cells: mouse brain
# Excerpt: as §1
# 20S+11S = test system: T6, 20S+11S; test: Apparent kinetic parameters of FRET substrate hydrolysis by 20S+11S complex; type: biochemical, mouse; details: for Km / Vmax·10^−2: apparent, 20S+11S, molar ratio 1:4, substrate 5 to 100 µM, 37 °C, means ± SEM of three independent experiments run in duplicate; for Km: Michaelis-Menten, fluorescence 340/490 nm, 1 h; for Vmax (+11S)/Vmax: ratio of Vmax by 20S+11S to Vmax by 20S, proteasome:11S 1:4
# T6 construct: from tissue; host or cells: mouse brain
# 26S proteasome = test system: T7, 26S proteasome; test: Apparent kinetic parameters of FRET substrate hydrolysis by 26S proteasome; type: biochemical, mouse; details: substrate 5 to 100 µM, 37 °C, means ± SEM of three independent experiments run in duplicate; for Km: Michaelis-Menten, fluorescence 340/490 nm, 1 h
# T7 construct: from tissue; host or cells: mouse brain
# 20S proteasome [6] = test system: T8, 20S proteasome; test: Determination of proteolysis sites of oligoglutamine peptides by LC-MS; type: biochemical, mouse; details: for Products of proteasomal hydrolysis identified: LC-MS, identical for all proteasome complexes (20S, 20S+11S, 26S, 26S+11S); for Peak of the starting substrate after incubation with 20S proteasome: incubation for 48 h, UPLC C18, UV-VIS and MS detection
# T8 construct: from tissue; host or cells: mouse brain
# Experimental: Next, we determined proteolysis sites for our oligoglutamine-containing peptides using liquid chromatography-mass spectrometry (LC-MS). The chromatogram of the Dabcyl-KQ5GD-EDANS solution in DMSO (Figure 3a) has a peak at the retention time of 1.69 min. According to the mass spectrum (Figure 3b), this peak corresponds to the Dabcyl-KQ5GD-EDANS (M = 1458.69 g/mole; z = 2; m/z = 729) molecule. Another fragment with m/z = 252 corresponds to the Dabcyl- (C15H14N3O), and the one with m/z = 380 corresponds to the DabcylK- (C21H26N5O2) fragment. These peaks are likely to arise due to fragmentation in a mass spectrometer since, upon hydrolysis, the masses of these fragments would be 269 and 397, respectively. After the incubation with proteasome for 48 h, the peak at 1.69 min disappeared (Figure 3c), and two other peaks appeared with retention times equal to 1.45 and 1.72 min. These peaks were assigned to the N- and C-ends of the peptide on the basis of the difference in the absorption spectra of the Dabcyl and EDANS moieties. […] Other products were not detected either at short (15 min) or longer hydrolysis times (72 h).
# Next, we identified cleavage sites for the substrate with a longer oligoglutamine fragment (Figure 4). The peak with a retention time of 1.06 min (Figure 4a) that corresponds to the Dabcyl-KQ10PPD-EDANS (M = 2236.38 g/mole; z = 2; m/z = 1118) molecule (Figure 4b) disappeared after the substrate was incubated with the 20S proteasome for 48 h. Instead, two other peaks appeared, at 1.14 and 1.37 min (Figure 4c). According to UV spectra for both peaks, the fragment at 1.14 min had Dabcyl chromophore, and the second fragment carried EDANS fluorophore. Finally, according to mass calculation, the first product was attributed to the Dabcyl-KQ2 fragment (Figure 4d) and the second one to the Q7PPD-EDANS moiety (Figure 4e).
# Peptide samples were analyzed on an Acquity UPLC system (Waters, Milford, MA, USA) connected to a PDA detector and TQD mass spectrometer (Waters). […] The gradient program was as follows: from 5%B to 50%B per 3 min, from 50%B to 5%B per 0.1 min, at a flow rate of 0.5 mL/min and a temperature of 35 °C. Solvent A: 20 mM formic acid in acetonitrile/water (1:20)/Solvent B: 20 mM formic acid in acetonitrile. Instrument settings and measuring parameters TQD were as follows: capillary voltage 3.5 kV; cone voltage 25 V; source temperature 120 °C; desolvation temperature 450 °C; cone gas flow 50 L/h; desolvation gas flow 800 L/h; MS1 scanning mass from 50 to 1500 Da; positive polarity. The PDA detector range was 220–500 nm. The resulting raw data were analyzed using the MassLynx software (version 4.1 SCN919).
# 26S+11S = test system: T9, 26S+11S; test: Apparent kinetic parameters of FRET substrate hydrolysis by 26S+11S complex; type: biochemical, mouse; details: for Km / Vmax·10^−2: apparent, 26S+11S, molar ratio 1:4, substrate 5 to 100 µM, 37 °C, means ± SEM of three independent experiments run in duplicate; for Km: Michaelis-Menten, fluorescence 340/490 nm, 1 h; for Vmax (+11S)/Vmax: ratio of Vmax by 26S+11S to Vmax by 26S, proteasome:11S 1:4
# T9 construct: from tissue; host or cells: mouse brain
# 20S proteasome [7] = test system: T8, 20S proteasome; test: Apparent kinetic parameters of FRET substrate hydrolysis by 20S proteasome; type: biochemical, mouse; details: substrate 5 to 100 µM, 37 °C, means ± SEM of three independent experiments run in duplicate; for Km: Michaelis-Menten, fluorescence 340/490 nm, 1 h
# [8] = means ± SEM of three independent experiments run in duplicate
# [9] = fit of dose-response curve (Figure 7), substrate 50 µM
# [10] = fit of dose-response curve (Figure 7)
IC50 [3],IC50 [4],IC50 [5],Km (20S+11S),Vmax·10^−2 (20S+11S),Vmax (+11S)/Vmax (20S+11S),Km (26S proteasome),Vmax·10^−2 (26S proteasome),Km (26S+11S),Vmax·10^−2 (26S+11S),Vmax (+11S)/Vmax (26S+11S),Km (20S proteasome [7]),Vmax·10^−2 (20S proteasome [7]),Compound,"Specific peptidase activity using Suc-LLVY-AMC [1, 8]",also measured
100000 ± 10000 nM,5100 ± 300 nM,> 150000 nM,–,–,–,–,–,–,–,–,–,–,CCCC[C@H](NC(=O)[C@@H]1CCCN1C(=O)OCc1ccccc1)C(=O)N[C@H](C=O)CC(=O)O [Z-P-nLeu-D-CHO] (Cbz-Pro-[Nle]-Asp-aldehyde),–,–
–,–,–,60 ± 8 µM,6.1 ± 1.4 10^−2 μM·min^−1,2.7,54 ± 10 µM,2.0 ± 0.3 10^−2 μM·min^−1,52 ± 10 µM,2.1 ± 0.3 10^−2 μM·min^−1,1.0,52 ± 8 µM,2.3 ± 0.3 10^−2 μM·min^−1,"Dabcyl-KQ5GD-EDANS [internally quenched fluorogenic FRET substrate with five glutamine residues, EDANS-Dabcyl pair]",–,Products of proteasomal hydrolysis identified (20S proteasome [6]): Dabcyl-KQ2 and QGD-EDANS; Peak of the starting substrate after incubation with 20S proteasome (20S proteasome [6]): disappeared
–,–,–,64 ± 14 µM,0.92 ± 0.15 10^−2 μM·min^−1,1.5,18 ± 2 µM,0.09 ± 0.01 10^−2 μM·min^−1,38 ± 9 µM,0.12 ± 0.03 10^−2 μM·min^−1,1.4,40 ± 3 µM,0.61 ± 0.02 10^−2 μM·min^−1,"Dabcyl-KQ10GD-EDANS [internally quenched fluorogenic FRET substrate with ten glutamine residues, EDANS-Dabcyl pair]",–,–

# Continued, compound first:
Compound,IC50 [3],IC50 [4],IC50 [5],Km (20S+11S),Vmax·10^−2 (20S+11S),Vmax (+11S)/Vmax (20S+11S),Km (26S proteasome),Vmax·10^−2 (26S proteasome),Km (26S+11S),Vmax·10^−2 (26S+11S),Vmax (+11S)/Vmax (26S+11S),Km (20S proteasome [7]),Vmax·10^−2 (20S proteasome [7]),"Specific peptidase activity using Suc-LLVY-AMC [1, 8]",also measured
"11S: 11S proteasomal regulator (PA28) consisting of α/β subunits, isolated from mouse brain",–,–,–,–,–,–,–,–,–,–,–,–,–,8.8 ± 0.4 nM/min/µg,"Specific peptidase activity using Z-LLE-AMC ([1]; 20S+11S (1:2, mole:mole), 20S alone 1.14 ± 0.02, means ± SEM of three independent experiments run in duplicate): 5.2 ± 0.1 nM/min/µg; Specific peptidase activity using Ac-RLR-AMC ([1]; 20S+11S (1:2, mole:mole), 20S alone 2.78 ± 0.07, means ± SEM of three independent experiments run in duplicate): 8.4 ± 0.2 nM/min/µg; Specific peptidase activity using Ac-RLR-AMC ([2]; 26S+11S (1:2, mole:mole), 26S alone 1.92 ± 0.06, means ± SEM of three independent experiments run in duplicate): 2.5 ± 0.2 nM/min/µg; Specific peptidase activity using Z-LLE-AMC ([2]; 26S+11S (1:2, mole:mole), 26S alone 5.4 ± 0.1, means ± SEM of three independent experiments run in duplicate): 6.7 ± 0.5 nM/min/µg"
C[C@@]12OC(=O)[C@]1([C@@H](O)[C@@H]1C=CCCC1)NC(=O)[C@@H]2CCCl [Marizomib],9.3 ± 1.5 nM,610 ± 40 nM,111 ± 8 nM,–,–,–,–,–,–,–,–,–,–,–,"Hill coefficient, inhibition of Z-LLE-AMC hydrolysis [4, 9]: (−1.1); Hill coefficient, inhibition of Dabcyl-KQ5 PPD-EDANS hydrolysis (20S brain proteasome; [10]): (−0.69); Hill coefficient, inhibition of Dabcyl-KQ10 PPD-EDANS hydrolysis (20S brain proteasome; [10]): (−0.39); IC50 (20S brain proteasome; substrate Dabcyl-KQ5 PPD-EDANS, read-out: IC50 of Dabcyl-KQ5 PPD-EDANS hydrolysis by 20S brain proteasome): 323 ± 15 nM; IC50 (20S brain proteasome; substrate Dabcyl-KQ10 PPD-EDANS, read-out: IC50 of Dabcyl-KQ10 PPD-EDANS hydrolysis by 20S brain proteasome): 480 ± 20 nM; Hill coefficient, inhibition of Ac-RLR-AMC hydrolysis [5, 9]: (−1.51)"
CCCCCCCCCCCCOS(=O)(=O)[O-].[Na+] [SDS],–,–,–,–,–,–,–,–,–,–,–,–,–,34 ± 6 nM/min/µg,Increase of the activity of the 20S proteasome ([1]; in the presence of 0.02% SDS): 13–15 times; Effect on the 26S proteasome activity ([2]; in the presence of 0.02% SDS): completely inhibited
CC(C)C[C@@H](C=O)NC(=O)[C@H](CC(C)C)NC(=O)[C@H](CC(C)C)NC(=O)OCc1ccccc1 [Z-LLL-CHO (MG132)] (Cbz-Leu-Leu-Leu-aldehyde),12 ± 3 nM,155 ± 5 nM,2800 ± 300 nM,–,–,–,–,–,–,–,–,–,–,0.093 ± 0.003 nM/min/µg,"IC50 (20S brain proteasome; substrate Dabcyl-KQ5 PPD-EDANS, n.d. = not detected, read-out: IC50 of Dabcyl-KQ5 PPD-EDANS hydrolysis by 20S brain proteasome): 50000 ± 6000 nM; IC50 (20S brain proteasome; substrate Dabcyl-KQ10 PPD-EDANS, n.d. = not detected, read-out: IC50 of Dabcyl-KQ10 PPD-EDANS hydrolysis by 20S brain proteasome): 72000 ± 8000 nM"
Dabcyl-KQ10PPD-EDANS,–,–,–,5.3 ± 1.3 µM,1.66 ± 0.07 10^−2 μM·min^−1,2.3,24.5 ± 10 µM,2.3 ± 0.2 10^−2 μM·min^−1,20 ± 4.6 µM,4.73 ± 0.35 10^−2 μM·min^−1,2.0,8.2 ± 1.5 µM,0.73 ± 0.03 10^−2 μM·min^−1,–,Products of proteasomal hydrolysis identified (20S proteasome [6]): Dabcyl-KQ2 and Q7PPD-EDANS; Peak of the starting substrate after incubation with 20S proteasome (20S proteasome [6]): disappeared
